Source: patent US8461176B2, “Enantiomerically enriched aryloazol-2-yl cyanoethylamino compounds, method of making and method of using thereof” (Merial Limited, priority 2008, dated 2013)

Legend:
Ancylostoma tubaeforme = assay: Method G: anthelmintic efficacy against induced infections of adult nematodes in cats, Ancylostoma tubaeforme; type: in vivo; conditions: oral, once, doses as low as 1 mg/kg
Procedure: (§1) Method G: Evaluation of Anthelmintic Efficacy Against Induced Infections of Adult Nematodes in Cats
(§2) Cats were inoculated on three consecutive days with an aliquot of infective eggs of Toxocara cati (days −63, −62, −61) and Ancylostoma tubaeforme (days −28, −27, −26) from one bulk solution each. The inoculation schedule was designed such that nematodes were adult on day 0. The approximate number of infective eggs/larvae given was recorded. Fecal samples were collected between day −7 and day −1 and examined to confirm the presence of infections, and are reported as eggs/gram of feces. Each formulation was orally administered once on day 0. On day 8, the cats were humanely euthanized. The stomach, cecum, small and large intestines were removed and the total content was retained for parasite recovery. Parasites were collected and identified. Efficacy was determined for each nematode species by calculating the percent efficacy as 100[(C−T)/C], where C is the mean count among untreated controls and T is the count of the treated animals.

[1] = system: ivermectin-resistant Ostertagia circumcincta; assay: Method I: sheep in vivo, ivermectin-resistant Ostertagia circumcincta; conditions: 1.5 mg/kg or 3 mg/kg orally
Description: (§3) Method I: Screening Method to Test Activity of Compounds Against Ivermectin-Resistant Haemonchus contortus, Ostertagia circumcincta, and Trichostrongylus colubriformis In Vivo in Sheep.
(§4) Sheep were challenged orally with infective 3rd stage larvae (L3) of Ostertagia circumcincta (˜3,000-6,000 infective L3 per animal) on Dat −28, Haemonchus contortus (˜2,000-4,000 infective L3 per animal) on Dat −25, and Trichostrongylus colubriformis (˜3,000-6,000 infective L3 per species per animal) on Dat −23. The inoculation schedule was designed so that nematodes were expected to be in the adult stage on Day 0. Test compounds were dissolved in a mixture of DMSO/Corn oil (1:1) at a concentration of 10 mg/mL. All treatments were administered orally once on Day 0. At sacrifice on Day 14 the abomasum, small intestine and large intestine (including cecum) were removed. Nematode counts were conducted on 10% (abomasal and small intestinal content, abomasal soak) or 20% aliquots (large intestinal content). All nematodes were speciated, or assigned to species based on location of recovery (adult females, fourth-stage larvae) for a total count per species. Efficacy was calculated as the % reduction in the mean number of worms in each test group compared with the mean number of worms recovered from the control group. […]

Ostertagia ostertagi = assay: Method H: cattle in vivo, Ostertagia ostertagi; conditions: compound alone, dose as low as 3 mg/kg administered orally
Description: (§5) Method H: Screening Method to Test Activity of Compounds Against Haemonchus placei, Ostertagia ostertagi, Trichostrongylus axei, Cooperia punctata, Bunostomum phlebotomum, Oesophagostomum radiatum, Dictyocaulus viviparus, and Nematodirus helvetianus In Vivo in Cattle.
(§6) Calves were challenged intra-aurally with larvae from Bunostomum phlebotomum (500-1000 L3 per animal) on Dat −56; and orally with larvae from Oesophagostomum radiatum (1,000-2,000 infective L3 per animal) on Dat −49, Nematodirus helvetianus (3,000-6,000 infective L3 per animal) on Dat −28, Haemonchus placei (5,000-7,000 infective L3 per animal) on Dat −28, Dictyocaulus viviparus (1,000-2,000 infective L3 per animal) on Dat −28, Ostertagia ostertagi (10,000-20,000 infective L3 per animal) on Dat −21, Trichostrongylus axei (10,000-20,000 infective L3 per animal) on Dat −21, Cooperia punctata (10,000-20,000 infective L3 per animal) on Dat −28, and Cooperia oncophora (10,000-20,000 infective L3 per animal) on Dat −21. The test compound was administered alone at a dose of 3 or 6 mg/kg orally or subcutaneously or subcutaneously at a dose of 6 mg/kg in combination with ivermectin at a dose of 50 mcg/kg. […] Efficacy was calculated for each nematode species by calculating the percent efficacy as 100[(C−T)/C], where C is the mean count among untreated controls and T is the count of the treated animals. […]

Cooperia punctata = assay: Method H: cattle in vivo, Cooperia punctata; conditions: compound alone, dose as low as 3 mg/kg administered orally
Description: as §5, §6

Nematodirus helvetianus = assay: Method H: cattle in vivo, Nematodirus helvetianus
Description: as §5
(§7) Calves were challenged intra-aurally with larvae from Bunostomum phlebotomum (500-1000 L3 per animal) on Dat −56; and orally with larvae from Oesophagostomum radiatum (1,000-2,000 infective L3 per animal) on Dat −49, Nematodirus helvetianus (3,000-6,000 infective L3 per animal) on Dat −28, Haemonchus placei (5,000-7,000 infective L3 per animal) on Dat −28, Dictyocaulus viviparus (1,000-2,000 infective L3 per animal) on Dat −28, Ostertagia ostertagi (10,000-20,000 infective L3 per animal) on Dat −21, Trichostrongylus axei (10,000-20,000 infective L3 per animal) on Dat −21, Cooperia punctata (10,000-20,000 infective L3 per animal) on Dat −28, and Cooperia oncophora (10,000-20,000 infective L3 per animal) on Dat −21. The test compound was administered alone at a dose of 3 or 6 mg/kg orally or subcutaneously or subcutaneously at a dose of 6 mg/kg in combination with ivermectin at a dose of 50 mcg/kg. For oral administration, test compounds were formulated at a concentration of 10 mg/mL in DMSO/Corn oil (1:1). For subcutaneous administration, test compounds were formulated in propylene glycol/glycerol formal (60:40). All treatments were administered at Day 0. At necropsy on Day 14/15, the abomasa, small intestine and large intestine were removed and processed for parasite recovery. Nematode counts were conducted on appropriate aliquots. Efficacy was calculated for each nematode species by calculating the percent efficacy as 100[(C−T)/C], where C is the mean count among untreated controls and T is the count of the treated animals. Compound number 3.024 provided >95% efficacy against Haemonchus placei, Ostertagia ostertagi, Trichostrongylus axei, Cooperia punctata, Oesophagostomum radiatum and Nematodirus helvetianus at a dose as low as 3 mg/kg administered orally. […]

Toxocara cati = assay: Method G: anthelmintic efficacy against induced infections of adult nematodes in cats, Toxocara cati; type: in vivo; conditions: oral, once, doses as low as 1 mg/kg
Procedure: as §1, §2

Haemonchus placei = assay: Method H: cattle in vivo, Haemonchus placei
Description: as §5, §7

[2] = system: Ivermectin-Resistant Haemonchus contortus, Ostertagia circumcincta, and Trichostrongylus colubriformis; assay: Method I: activity against ivermectin-resistant nematodes in vivo in sheep (all species tested); conditions: oral, once, doses as low as 1.5 mg/kg
Description: as §3, §4

Caenorhabditis elegans = assay: Inhibition of the motility of Caenorhabditis elegans
Oesophagostomum radiatum = assay: Method H: cattle in vivo, Oesophagostomum radiatum; conditions: compound alone, dose as low as 3 mg/kg administered orally
Description: as §5, §6

[3] = system: ivermectin-resistant Trichostrongylus columbriformis; assay: Method I: sheep in vivo, ivermectin-resistant Trichostrongylus colubriformis; conditions: 1.5 mg/kg or 3 mg/kg orally
Description: as §3, §4

Haemonchus contortus [4] = assay: Method B: activity against Haemonchus contortus in vivo in Mongolian gerbil; set-up: species or system Mongolian gerbil (Meriones unguiculatus); conditions: po, 72 h, oral gavage, dose 0.1 mg/kg, read-out: reduction in nematode infection
Procedure: Method B: Screening Method to Test Activity of Compounds Against Haemonchus contortus In Vivo in Mongolian Gerbil (Meriones unguiculatus).
Mongolian gerbils, at least five weeks old, were immunosuppressed and artificially infected with ca. 1000 ensheathed Haemonchus contortus third instar larvae. Six days after infection, the Mongolian gerbils were treated by oral gavage with the test compounds, dissolved in a mixture of 2 parts DMSO and 1 part polyethylene glycol (PEG400), at doses of 100 mg/kg and dissolved in pure polyethylene glycol (PEG400) at doses of 10 and 1 mg/kg. Mongolian gerbils treated only with the placebo (2 parts DMSO and 1 part PEG400 or pure PEG400) served as controls. On day 9 (3 days after treatment) the jirds were euthanized and necropsied for recovery of parasites from the stomach. Efficacy was calculated as the average % reduction in the number of worms in each test group compared with the average number of worms from the control group. […] Compound numbers 1.001, 1.008, 1.012, 1.013 and 1.014 provided at least 95% reduction in nematode in Mongolian gerbils treated by oral gavage with test article at a dose of 100 mg/kg. Compound numbers 1.012, 1.033, 1.064, 2.008, 2.037, 2.038, 2.040, 2.041, 3.001 provided at least 95% reduction in nematode infection at a dose of 10 mg/kg. Compound numbers 1.094, 1.096, 2.048, 3.001, 3.007 and 3.009, provided at least 95% reduction in nematode infection at a dose of 1 mg/kg. Compound numbers 3.006, 3.017 and 3.019 provided at least 95% reduction in nematode infection at a dose of 0.5 mg/kg. Compound numbers 3.005, 3.011 and 3.012 provided at least 95% reduction in nematode infection at a dose of 0.3 mg/kg. The eutomer compound number 3.024 provided at least 95% reduction in nematode infection at a dose of 0.1 mg/kg.

Haemonchus contortus [5] = assay: Method A: screening of activity against Haemonchus contortus L1 larvae in microtitre plate (development to L3 / motility)
Description: Method A: Screening Method to Test Activity of Compounds Against Haemonchus contortus.

Trichostrongylus axei = assay: Method H: cattle in vivo, Trichostrongylus axei; conditions: compound alone, dose as low as 3 mg/kg administered orally
Description: as §5, §6

[6] = system: ivermectin-resistant Haemonchus contortus; assay: Method I: sheep in vivo, ivermectin-resistant Haemonchus contortus; conditions: 1.5 mg/kg or 3 mg/kg orally
Description: as §3, §4

[7] = compound alone, dose as low as 3 mg/kg administered orally
[8] = subcutaneous, 6 mg/kg in combination with ivermectin 50 μg/kg (0.05 mg/kg)

C[C@](C#N)(Cn1cc2ncc(Br)cc2n1)NC(=O)c1ccc(OC(F)(F)F)cc1 [Compound 3.024, (+)-N-[2-(6-Bromo-2H-pyrazolo[4,3-b]pyridin-2-yl)-1-cyano-1-methylethyl]-4-trifluoromethoxybenzamide]
greater than 100 times: potency at inhibiting the motility of Caenorhabditis elegans, relative to compound 3.025 (Caenorhabditis elegans) | potency at inhibiting the motility of Haemonchus contortus larvae, eutomer relative to distomer (Haemonchus contortus [5]; relative to the distomer (compound 3.025))
greater than 95%: efficacy against ivermectin-resistant Ostertagia circumcincta [1] | efficacy against Nematodirus helvetianus (Nematodirus helvetianus; [8]) | efficacy against Haemonchus placei (ivermectin-resistant strain) (Haemonchus placei; [8]) | efficacy against ivermectin-resistant Trichostrongylus columbriformis [3] | efficacy against ivermectin-resistant Haemonchus contortus [6]
≥ 95%: inhibition in vivo at 0.1 mg/kg (Haemonchus contortus [4])
≥ 90%: inhibition at 0.0025 ppm (Haemonchus contortus [5]; Haemonchus contortus, 96 h, test concentration 0.0025 ppm, 4 days assessment)
> 94%: efficacy against Ancylostoma tubaeforme (Ancylostoma tubaeforme) | efficacy against Toxocara cati (Toxocara cati)
> 95%: efficacy against Ostertagia ostertagi (Ostertagia ostertagi) | efficacy against Cooperia punctata (Cooperia punctata) | efficacy against Nematodirus helvetianus (Nematodirus helvetianus; [7]) | efficacy against Haemonchus placei (Haemonchus placei; [7]) | efficacy against all species of the nematodes tested (ivermectin-resistant) [2] | efficacy against Oesophagostomum radiatum (Oesophagostomum radiatum) | efficacy against Trichostrongylus axei (Trichostrongylus axei)
